IC50 data for one compound are collected here from BindingDB's records for doi:10.1021/jm000275p (Merck Research Laboratories, 2001).

In assay [1] the target is Gonadotropin-releasing hormone receptor (Macaca mulatta). Kind of assay: Functional antagonism at the rhesus monkey gonadotropin-releasing hormone receptor.
For assay [2], the target named is Gonadotropin-releasing hormone receptor (Canis familiaris). Put plainly: Functional antagonism at gonadotropin-releasing hormone receptor in dog (PI turnover).
Assay [3] concerns the target Gonadotropin-releasing hormone receptor (Macaca mulatta). Kind of assay: In vitro inhibition of gonadotropin-releasing hormone receptor in rhesus monkey.
Assay [4] has as its target Gonadotropin-releasing hormone receptor (Canis familiaris). Put plainly: In vitro inhibition of binding to gonadotropin-releasing hormone receptor in dog.

The IC50 is the concentration at which inhibition is half-maximal. `Cc1cc(-c2c(OCC[C@@H]3CCN3)c3cc(C(=O)Nc4ccncn4)c(Cl)cc3[nH]c2=O)cc(C)c1C` [4-(2-Azetidin-2-yl-ethoxy)-7-chloro-2-oxo-3-(3,4,5-trimethyl-phenyl)-1,2-dihydro-quinoline-6-carboxylic acid pyrimidin-4-ylamide]: the IC50 in assay [1] came out at 7 nM; in assay [2], 350 nM; in assay [3] it was 0.5 nM; in assay [4] it was 60 nM.
